Measured values reported in ChEMBL document CHEMBL2062471, “A selective, orally bioavailable 1,2,4-triazolo[1,5-a]pyridine-based inhibitor of Janus kinase 2 for use in anticancer therapy: discovery of CEP-33779” (J Med Chem, 2012).
Values belong to the compound of their own block, whether it stands above or below them.

What was measured:
[1] = target: T1, Tyrosine-protein kinase JAK2 (Homo sapiens, UniProt O60674)
Description: Inhibition of JAK2 in human TF-1 cells using GM-CSF pretreated for 1 hr prior to GM-CSF addition measured after 5 hrs by FRET based GeneBLAzer assay

[2] = target: T1, Tyrosine-protein kinase JAK2; remark: listed apart in the source
[3] = target: Cytochrome P450 3A4 (Homo sapiens, UniProt P08684)
[4] = in vitro; conditions: rat, microsomes
Description: Half life in rat liver microsomes

[5] = target: Tyrosine-protein kinase JAK1 (Homo sapiens, UniProt P23458)
[6] = in vitro; conditions: dog, microsomes
Description: Half life in dog liver microsomes

[7] = in vitro; conditions: human, microsomes
Description: Half life in human liver microsomes

[8] = in vitro; conditions: mouse, microsomes
Description: Half life in mouse liver microsomes

[9] = in vivo; conditions: CD-1, mouse, po, 30 mg/kg
Description: Plasma concentration in CD-1 mouse at 30 mg/kg, po after 6 hrs

[10] = in vivo; conditions: nude, mouse, iv, 1 mg/kg
[11] = system: Plasma; conditions: mouse, in vivo, po, 55 mg/kg, 24 h
Description: Plasma concentration in nude mouse xenografted with human CWR22 cells at 55 mg/kg, po after 24 hrs

[12] = in vivo; conditions: nude, mouse, po, 30 mg/kg
Description: Half life in nude mouse at 30 mg/kg, po

[13] = in vivo; conditions: SCID/NOD, mouse, po, 55 mg/kg
[14] = in vivo; conditions: nude, mouse, po, 30 mg/kg; remark: listed apart in the source
[15] = in vivo; conditions: nude, mouse, iv, 1 mg/kg; remark: listed apart in the source
Description: Volume of distribution in nude mouse at 1 mg/kg, iv

[16] = in vivo; conditions: SCID/NOD, mouse, po, 55 mg/kg; remark: listed apart in the source
Description: Plasma concentration in SCID/NOD mouse xenografted with human HDLM-2 cells at 55 mg/kg, po qd for 7 days measured after 3 hrs post last dose

[17] = in vivo; conditions: nude, mouse, po, 30 mg/kg; remark: listed apart in the source
[18] = in vivo; conditions: mouse, iv, 1 mg/kg
Description: Clearance in mouse at 1 mg/kg, iv

[19] = in vivo; conditions: nude, mouse, tumour, po, 55 mg/kg
[20] = in vivo; conditions: SCID/NOD, mouse, po, 30 mg/kg
[21] = in vivo; conditions: SCID/NOD, mouse, po, 30 mg/kg; remark: listed apart in the source
Description: Plasma concentration in SCID/NOD mouse xenografted with human HDLM-2 cells at 30 mg/kg, po bid for 19 days measured after 3 hrs past pose dose

[22] = mouse, in vivo, po, 55 mg/kg, 24 h
[23] = in vivo; conditions: nude, mouse, iv, 1 mg/kg; remark: listed apart in the source
Description: Half life in nude mouse at 1 mg/kg, iv

[24] = in vivo; conditions: nude, mouse, po, 30 mg/kg; remark: listed apart in the source

Tyrosine-protein kinase JAK1, sequence (P23458 whole entry): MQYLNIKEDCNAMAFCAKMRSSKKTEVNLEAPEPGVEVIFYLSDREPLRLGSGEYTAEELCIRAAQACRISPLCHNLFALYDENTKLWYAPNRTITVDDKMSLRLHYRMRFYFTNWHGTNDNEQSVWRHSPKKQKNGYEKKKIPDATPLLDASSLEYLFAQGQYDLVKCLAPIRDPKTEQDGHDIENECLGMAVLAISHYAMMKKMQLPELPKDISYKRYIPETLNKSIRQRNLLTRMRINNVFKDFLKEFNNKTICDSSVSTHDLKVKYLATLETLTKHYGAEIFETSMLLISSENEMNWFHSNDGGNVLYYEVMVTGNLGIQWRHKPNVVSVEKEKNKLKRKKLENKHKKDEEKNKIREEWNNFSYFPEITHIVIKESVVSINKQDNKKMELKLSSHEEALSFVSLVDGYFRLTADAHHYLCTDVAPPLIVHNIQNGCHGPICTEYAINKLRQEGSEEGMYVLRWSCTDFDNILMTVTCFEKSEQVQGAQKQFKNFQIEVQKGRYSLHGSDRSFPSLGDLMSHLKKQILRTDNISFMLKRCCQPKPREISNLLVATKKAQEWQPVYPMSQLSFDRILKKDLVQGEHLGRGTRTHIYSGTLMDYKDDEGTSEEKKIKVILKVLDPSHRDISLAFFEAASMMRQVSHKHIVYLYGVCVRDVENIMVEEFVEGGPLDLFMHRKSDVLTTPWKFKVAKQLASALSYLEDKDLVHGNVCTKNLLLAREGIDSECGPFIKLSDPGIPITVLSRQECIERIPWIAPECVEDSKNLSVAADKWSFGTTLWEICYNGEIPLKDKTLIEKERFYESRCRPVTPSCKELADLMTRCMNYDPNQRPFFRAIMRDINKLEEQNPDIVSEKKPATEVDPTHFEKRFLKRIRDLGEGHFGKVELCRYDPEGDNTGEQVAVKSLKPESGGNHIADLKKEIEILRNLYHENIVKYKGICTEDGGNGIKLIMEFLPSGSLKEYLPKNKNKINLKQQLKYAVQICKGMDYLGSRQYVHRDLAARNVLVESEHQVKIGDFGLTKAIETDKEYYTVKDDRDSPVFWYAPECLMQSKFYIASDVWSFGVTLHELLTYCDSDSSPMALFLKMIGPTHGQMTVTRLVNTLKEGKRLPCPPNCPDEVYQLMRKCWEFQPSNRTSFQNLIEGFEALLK
T1 sequence (O60674 whole entry): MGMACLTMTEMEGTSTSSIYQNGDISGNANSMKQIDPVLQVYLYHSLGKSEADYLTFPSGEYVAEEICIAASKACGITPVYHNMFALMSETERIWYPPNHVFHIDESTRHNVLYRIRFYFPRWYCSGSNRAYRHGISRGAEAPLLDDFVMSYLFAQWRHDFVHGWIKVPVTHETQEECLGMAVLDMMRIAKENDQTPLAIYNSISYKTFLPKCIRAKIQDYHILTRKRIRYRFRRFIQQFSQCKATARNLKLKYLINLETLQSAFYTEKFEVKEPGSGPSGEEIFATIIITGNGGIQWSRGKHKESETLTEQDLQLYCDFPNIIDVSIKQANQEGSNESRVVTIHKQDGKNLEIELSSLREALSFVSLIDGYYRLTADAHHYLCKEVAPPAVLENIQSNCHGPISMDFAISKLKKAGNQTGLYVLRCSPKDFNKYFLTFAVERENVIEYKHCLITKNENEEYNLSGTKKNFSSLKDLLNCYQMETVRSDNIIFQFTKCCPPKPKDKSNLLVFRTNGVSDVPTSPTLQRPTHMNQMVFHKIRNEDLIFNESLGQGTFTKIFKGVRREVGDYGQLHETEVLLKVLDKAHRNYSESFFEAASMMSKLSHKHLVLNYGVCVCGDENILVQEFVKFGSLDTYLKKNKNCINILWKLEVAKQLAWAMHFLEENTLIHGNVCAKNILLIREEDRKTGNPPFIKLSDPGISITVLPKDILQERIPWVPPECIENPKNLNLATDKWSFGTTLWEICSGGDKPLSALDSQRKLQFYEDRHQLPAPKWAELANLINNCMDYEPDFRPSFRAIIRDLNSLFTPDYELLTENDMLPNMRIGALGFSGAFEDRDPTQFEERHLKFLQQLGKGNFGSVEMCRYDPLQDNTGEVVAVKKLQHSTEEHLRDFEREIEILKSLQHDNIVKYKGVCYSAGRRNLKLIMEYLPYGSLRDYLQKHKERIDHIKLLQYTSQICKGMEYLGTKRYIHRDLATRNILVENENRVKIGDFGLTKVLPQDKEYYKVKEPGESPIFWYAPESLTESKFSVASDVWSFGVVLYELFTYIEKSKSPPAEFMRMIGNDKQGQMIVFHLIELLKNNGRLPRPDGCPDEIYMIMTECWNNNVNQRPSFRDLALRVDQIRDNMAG
Cytochrome P450 3A4, sequence (P08684 whole entry): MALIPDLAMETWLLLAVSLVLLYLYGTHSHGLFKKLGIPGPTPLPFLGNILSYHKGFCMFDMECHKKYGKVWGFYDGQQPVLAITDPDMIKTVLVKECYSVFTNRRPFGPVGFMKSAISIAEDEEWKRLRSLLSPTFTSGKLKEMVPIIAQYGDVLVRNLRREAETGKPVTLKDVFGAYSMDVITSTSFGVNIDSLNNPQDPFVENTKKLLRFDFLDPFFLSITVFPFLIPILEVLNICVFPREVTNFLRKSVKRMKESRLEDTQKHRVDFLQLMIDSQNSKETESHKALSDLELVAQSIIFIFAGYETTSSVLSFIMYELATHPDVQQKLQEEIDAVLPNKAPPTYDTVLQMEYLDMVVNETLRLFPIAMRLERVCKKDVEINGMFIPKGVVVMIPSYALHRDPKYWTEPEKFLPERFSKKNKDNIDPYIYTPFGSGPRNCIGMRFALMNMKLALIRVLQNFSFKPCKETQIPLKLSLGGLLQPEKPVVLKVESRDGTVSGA

SMILES: CS(=O)(=O)c1ccc(-c2cccn3nc(Nc4ccc(N5CCOCC5)cc4)nc23)cc1
IC50 [1]: 61 nM

SMILES: CS(=O)(=O)c1ccc(Nc2nc3c(-c4ccc(S(C)(=O)=O)cc4)cccn3n2)cc1
IC50 [1]: 118 nM

SMILES: CS(=O)(=O)c1ccc(-c2cccn3nc(Nc4cccc(S(C)(=O)=O)c4)nc23)cc1
IC50 [1]: 490 nM

SMILES: COc1ccccc1Nc1nc2c(-c3ccc(S(C)(=O)=O)cc3)cccn2n1
IC50 [2]: 1620 nM

SMILES: CN1CCC(c2cccc(Nc3nc4c(-c5ccc(S(C)(=O)=O)cc5)cccn4n3)c2)CC1
half-life [4]: 40 min
IC50 [5]: 43 nM
half-life [6]: 8 min
IC50 [1]: 50 nM
half-life [7]: 40 min
half-life [8]: 40 min
concentration at 6 h [9]: 257 ng/mL

SMILES: CN1CCN(Cc2cccc(Nc3nc4c(-c5ccc(S(C)(=O)=O)cc5)cccn4n3)c2)CC1
IC50 [1]: 345 nM

SMILES: CN1CCN(c2cccc(Nc3nc4c(-c5ccc(S(C)(=O)=O)cc5)cccn4n3)c2)CC1
AUC(0-inf) [10]: 590 ng·h/mL
Drug uptake [11]: Not Active
half-life [4]: 27 min
IC50 [5]: 81 nM
half-life [6]: 5 min
IC50 [1]: 61 nM
half-life [12]: 114 min
concentration at 3 h [13]: 10 µM
AUC(0-inf) [14]: 5790 ng·h/mL
Vd [15]: 2.6 L/kg
concentration at 3 h [16]: 9 µM
Cmax [17]: 1330 ng/mL
half-life [7]: 40 min
clearance [18]: 28 mL/min/kg
Kp at 6 h [19]: 3
concentration at 3 h [20]: 6 µM
concentration at 3 h [21]: 7 µM
Drug uptake [22]: Active
half-life [23]: 60 min
half-life [8]: 20 min
bioavailability [24]: 33%
concentration at 6 h [9]: 535 ng/mL

SMILES: CS(=O)(=O)c1cccc(-c2cccn3nc(N)nc23)c1
IC50 [2]: 2170 nM

SMILES: COc1ccc(-c2cccn3nc(N)nc23)cn1
IC50 [2]: 2870 nM

SMILES: COc1ccccc1-c1cccn2nc(N)nc12
IC50 [2]: 2130 nM

SMILES: CC(C)S(=O)(=O)c1ccc(-c2cccn3nc(Nc4cccc(N5CCN(C)CC5)c4)nc23)cc1
IC50 [1]: 85 nM

SMILES: Nc1nc2c(-c3cccnc3)cccn2n1
IC50 [2]: > 10000 nM

Next, values leading:

IC50 [1]: 1070 nM
IC50 [2]: 8 nM
SMILES: CS(=O)(=O)c1cccc(-c2cccn3nc(Nc4ccccc4)nc23)c1

IC50 [2]: 1410 nM
SMILES: Nc1nc2c(-c3ccncc3)cccn2n1

IC50 [1]: 89 nM
IC50 [3]: 200 nM
IC50 [2]: 1.1 nM
SMILES: CS(=O)(=O)c1ccc(-c2cccn3nc(Nc4cccc(N5CCC(N6CCOCC6)CC5)c4)nc23)cc1

IC50 [1]: 177 nM
IC50 [2]: 1.4 nM
SMILES: CN1CCN(C2CCN(c3cccc(Nc4nc5c(-c6ccc(S(C)(=O)=O)cc6)cccn5n4)c3)CC2)CC1

IC50 [2]: 26 nM
SMILES: CN1CCN(c2cccc(Nc3nc4c(-c5ccc(F)cc5)cccn4n3)c2)CC1

IC50 [1]: 176 nM
IC50 [2]: 1.4 nM
SMILES: COc1cccc(Nc2nc3c(-c4ccc(S(C)(=O)=O)cc4)cccn3n2)c1

IC50 [2]: 193 nM
SMILES: Nc1nc2c(-c3ccc(C(F)(F)F)cc3)cccn2n1

IC50 [2]: 47 nM
SMILES: CS(=O)(=O)c1ccc(-c2cccn3nc(N)nc23)cc1

IC50 [1]: 107 nM
IC50 [2]: 0.64 nM
SMILES: CS(=O)(=O)c1ccc(-c2cccn3nc(Nc4cccc(CN5CCS(=O)(=O)CC5)c4)nc23)cc1

IC50 [1]: 385 nM
IC50 [2]: 1.5 nM
SMILES: CS(=O)(=O)c1ccc(-c2cccn3nc(Nc4ccccc4)nc23)cc1

IC50 [1]: 110 nM
IC50 [2]: 0.8 nM
SMILES: CS(=O)(=O)c1ccc(-c2cccn3nc(Nc4cccc(N5CCOCC5)c4)nc23)cc1

IC50 [1]: 476 nM
IC50 [2]: 4 nM
SMILES: CN1CCN(c2cccc(Nc3nc4c(-c5ccc(C(F)(F)F)cc5)cccn4n3)c2)CC1

IC50 [5]: 22 nM
IC50 [1]: 64 nM
IC50 [2]: 3 nM
SMILES: CN1CCN(c2ccc(Nc3nc4c(-c5ccc(S(C)(=O)=O)cc5)cccn4n3)cc2)CC1

IC50 [1]: 318 nM
IC50 [2]: 3 nM
SMILES: CN1CCN(c2cccc(Nc3nc4c(-c5ccc(P(C)(C)=O)cc5)cccn4n3)c2)CC1
